Experimental data as given in publication PMC12406681 (Antimicrobial Agents and Chemotherapy, 2025).
Where two headings read alike, the source gives them in different places.

Tests used:
Type in all cases: cell-based, La Crosse virus
[1] = test system: LACV D35G mutant; settings: Vero cells; for Fold change (/original stock) / Fold change (/passage control): EC50 ratio; for EC50: mean ± SD
[2] = test system: LACV V27A mutant
[3] = test system: LACV D35G mutant
[4] = test system: LACV V27A mutant; settings: Vero cells; for Fold change (/original stock) / Fold change (/passage control): EC50 ratio; for EC50: mean ± SD

| Structure (SMILES) | Fold change (/original stock) [1] | Fold change (/passage control) [1] | EC50 [1] | EC50 [2] | Fold change (/original stock) [2] | Fold change (/passage control) [2] | EC50 [3] | Fold change (/original stock) [3] | Fold change (/passage control) [3] | Fold change (/original stock) [4] | Fold change (/passage control) [4] | EC50 [4] |
| --- | --- | --- | --- | --- | --- | --- | --- | --- | --- | --- | --- | --- |
| CC(C)N1CN(C2c3ccccc3CCc3ccccc32)n2cc(C(=O)O)c(=O)c(O)c2C1=O [CAPCA-1, carbamoyl pyridone carboxylic acid (CAPCA)-1] | >46.51 | >25.32 | > 20 µM | 4.63 ± 0.8 µM | 4.87 | 7.12 | 12.9 ± 2.22 µM | 13.57 | 19.83 | 12.91 | 7.03 | 5.55 ± 1.64 µM |
| NC(=O)c1nc(F)c[nH]c1=O [T-705, favipiravir, reference compound] | 1.51 | 1.30 | 57 ± 11.8 µM |  |  |  |  |  |  | 1.17 | 1.01 | 44.3 ± 5.15 µM |
